{
  "source": "ChEMBL document CHEMBL1201862",
  "about": "“PubChem BioAssay data set” (2004)",
  "key": {"[1]": {"experiment": "inhibition of ARNT PAS-B/TACC3 complex formation – biochemical, AlphaScreen, cherry-picked samples, confirmation (AID 651703);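 further: His-tagged ARNT PAS-B domain paired with GST-TACC3 E629A dimer coactivator fragment; potency of inhibitors that break up the complex and lower AlphaScreen signal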", "format": "functional, Homo sapiens"}, "[2]": {"molecular_target": "Induced myeloid leukemia cell differentiation protein Mcl-1 (Homo sapiens, UniProt Q07820)", "sequence (Q07820 whole entry)": "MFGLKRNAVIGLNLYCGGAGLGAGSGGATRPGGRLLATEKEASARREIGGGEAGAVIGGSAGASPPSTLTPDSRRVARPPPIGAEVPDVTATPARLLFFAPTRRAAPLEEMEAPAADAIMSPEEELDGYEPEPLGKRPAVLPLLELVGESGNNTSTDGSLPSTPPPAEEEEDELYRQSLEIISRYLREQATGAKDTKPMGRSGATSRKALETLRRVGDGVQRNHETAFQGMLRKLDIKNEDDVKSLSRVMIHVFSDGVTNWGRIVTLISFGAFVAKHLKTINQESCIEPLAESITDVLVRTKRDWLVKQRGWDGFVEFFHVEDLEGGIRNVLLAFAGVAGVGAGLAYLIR", "format": "functional"}, "[3]": {"molecular_target": "T1, Probable nicotinate-nucleotide adenylyltransferase (Staphylococcus aureus (strain N315), UniProt P65502)", "T1 sequence (P65502 whole entry)": "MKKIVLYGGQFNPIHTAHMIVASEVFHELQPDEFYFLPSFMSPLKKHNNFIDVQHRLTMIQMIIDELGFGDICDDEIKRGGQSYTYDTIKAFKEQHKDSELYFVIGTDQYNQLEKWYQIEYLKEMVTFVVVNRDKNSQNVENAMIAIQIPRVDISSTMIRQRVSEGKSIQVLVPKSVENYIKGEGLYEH", "format": "functional, Staphylococcus aureus subsp. aureus N315"}, "[4]": {"molecular_target": "T1, Probable nicotinate-nucleotide adenylyltransferase", "format": "functional, Staphylococcus aureus subsp. aureus N315", "conditions": "read-out: IC50_Mean"}, "[5]": {"molecular_target": "T2, ATP-dependent translocase ABCB1 (Homo sapiens, UniProt P08183)", "T2 sequence (P08183 whole entry)": "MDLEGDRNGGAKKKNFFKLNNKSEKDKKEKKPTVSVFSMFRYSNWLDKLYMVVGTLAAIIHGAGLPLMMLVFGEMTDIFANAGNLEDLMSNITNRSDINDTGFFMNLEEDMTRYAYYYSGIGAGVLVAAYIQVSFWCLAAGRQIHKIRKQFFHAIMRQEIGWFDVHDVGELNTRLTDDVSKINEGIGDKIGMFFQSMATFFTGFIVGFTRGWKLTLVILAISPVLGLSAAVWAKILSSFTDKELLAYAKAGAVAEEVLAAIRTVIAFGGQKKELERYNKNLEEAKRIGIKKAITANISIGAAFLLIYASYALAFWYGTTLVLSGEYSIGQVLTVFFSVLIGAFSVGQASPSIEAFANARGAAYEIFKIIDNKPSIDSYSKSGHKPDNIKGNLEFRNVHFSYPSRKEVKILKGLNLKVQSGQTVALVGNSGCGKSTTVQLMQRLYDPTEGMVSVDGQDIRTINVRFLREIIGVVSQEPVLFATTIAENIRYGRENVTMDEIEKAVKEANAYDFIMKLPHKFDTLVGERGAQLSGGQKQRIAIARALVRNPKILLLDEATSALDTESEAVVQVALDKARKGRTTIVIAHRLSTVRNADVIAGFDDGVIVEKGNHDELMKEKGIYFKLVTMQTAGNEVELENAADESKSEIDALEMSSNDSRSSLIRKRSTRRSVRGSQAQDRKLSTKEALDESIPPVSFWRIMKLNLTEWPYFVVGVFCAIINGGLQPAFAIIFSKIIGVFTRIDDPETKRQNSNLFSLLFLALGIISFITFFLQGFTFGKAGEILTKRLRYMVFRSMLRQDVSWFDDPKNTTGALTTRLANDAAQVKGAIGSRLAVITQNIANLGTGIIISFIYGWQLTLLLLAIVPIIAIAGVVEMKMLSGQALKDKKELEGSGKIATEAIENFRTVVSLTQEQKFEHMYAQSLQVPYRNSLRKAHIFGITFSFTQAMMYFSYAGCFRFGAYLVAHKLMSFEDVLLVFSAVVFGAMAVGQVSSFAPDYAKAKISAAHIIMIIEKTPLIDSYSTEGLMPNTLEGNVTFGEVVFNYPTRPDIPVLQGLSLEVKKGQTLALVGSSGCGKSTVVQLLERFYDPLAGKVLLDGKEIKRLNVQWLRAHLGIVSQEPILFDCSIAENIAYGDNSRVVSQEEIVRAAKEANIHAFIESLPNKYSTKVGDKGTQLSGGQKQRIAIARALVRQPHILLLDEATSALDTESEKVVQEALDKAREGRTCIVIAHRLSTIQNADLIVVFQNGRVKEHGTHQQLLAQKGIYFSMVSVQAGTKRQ", "experiment": "inhibition of BCRP-mediated JC-1 efflux – Ig-MXP3 cells, flow cytometry, set 2, dose response (AID 504566);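 further: flow cytometry median green fluorescence of retained JC-1 dye; potency of efflux pump inhibition measured as rising substrate retention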", "format": "functional", "conditions": "read-out: EC50_MICROM_"}, "[6]": {"molecular_target": "T2, ATP-dependent translocase ABCB1", "experiment": "P-gp JC-1 efflux blockade concentration-response – Jurkat-DNR cells, flow cytometry, set 2, dose response (AID 504569);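 further: potency of pump inhibitors that raise cellular JC-1 green fluorescence up to the nicardipine level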", "format": "functional", "conditions": "read-out: EC50_MICROM_"}, "[7]": {"molecular_target": "T3, Low molecular weight phosphotyrosine protein phosphatase (Homo sapiens, UniProt P24666)", "T3 sequence (P24666 whole entry)": "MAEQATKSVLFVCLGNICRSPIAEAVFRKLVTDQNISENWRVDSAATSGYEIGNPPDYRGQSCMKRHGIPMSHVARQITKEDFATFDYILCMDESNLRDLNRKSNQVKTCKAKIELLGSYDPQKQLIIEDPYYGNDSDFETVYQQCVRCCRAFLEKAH", "format": "functional", "conditions": "read-out: IC50_Mean"}, "[8]": {"molecular_target": "T4, Tyrosine-protein phosphatase non-receptor type 22 (Homo sapiens, UniProt Q9Y2R2)", "T4 sequence (Q9Y2R2 whole entry)": "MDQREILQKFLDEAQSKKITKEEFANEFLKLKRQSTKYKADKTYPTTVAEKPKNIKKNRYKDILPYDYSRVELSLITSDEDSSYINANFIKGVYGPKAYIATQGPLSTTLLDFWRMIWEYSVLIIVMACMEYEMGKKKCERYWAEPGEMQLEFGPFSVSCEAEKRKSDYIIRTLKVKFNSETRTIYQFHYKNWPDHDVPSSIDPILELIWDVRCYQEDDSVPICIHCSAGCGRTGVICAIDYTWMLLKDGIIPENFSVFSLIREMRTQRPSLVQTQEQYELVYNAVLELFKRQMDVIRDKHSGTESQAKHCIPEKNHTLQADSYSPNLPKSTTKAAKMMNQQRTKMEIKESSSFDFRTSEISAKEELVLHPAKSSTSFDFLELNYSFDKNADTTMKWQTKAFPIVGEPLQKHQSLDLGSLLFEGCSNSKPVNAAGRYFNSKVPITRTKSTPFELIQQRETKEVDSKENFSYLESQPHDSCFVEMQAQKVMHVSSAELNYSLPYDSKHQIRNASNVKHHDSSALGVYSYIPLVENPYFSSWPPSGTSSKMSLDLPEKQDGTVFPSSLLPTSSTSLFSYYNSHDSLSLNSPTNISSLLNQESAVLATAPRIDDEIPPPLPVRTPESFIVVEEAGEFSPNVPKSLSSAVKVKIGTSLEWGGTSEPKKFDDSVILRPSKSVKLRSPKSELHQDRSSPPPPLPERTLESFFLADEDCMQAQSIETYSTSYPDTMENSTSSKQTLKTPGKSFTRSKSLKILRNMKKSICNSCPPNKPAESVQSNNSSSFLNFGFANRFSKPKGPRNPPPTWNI", "experiment": "PTPN22 enzyme inhibitors – biochemical, fluorescence, LYP catalytic domain, selectivity assay for LMPTP inhibitor project, dose response (AID 652006)", "format": "functional", "conditions": "read-out: IC50_Mean"}, "[9]": {"molecular_target": "T3, Low molecular weight phosphotyrosine protein phosphatase", "format": "functional", "conditions": "read-out: IC50_Mean", "remark": "listed apart in the source"}},
  "note": "Where “and” joins values, the source holds several entries; their conditions need not be identical. Identical values can stand only once. Calls of active or inactive are those of the source.",
  "data": [
    {"smiles": "O=C(N/N=C1/CCS(=O)(=O)c2ccc(F)cc21)c1ccccn1", "values": [
      {"measurement": "AC50", "setting": "[1]", "result": "78.4 µM (active)"}
    ]},
    {"smiles": "COc1ccc(/C=C2\\SC(=O)N(CCC(=O)Nc3ccc(S(=O)(=O)Nc4nccs4)cc3)C2=O)cc1", "values": [
      {"measurement": "IC50", "setting": "[2]", "result": "3.11 µM (active)"},
      {"measurement": "IC50", "setting": "[3]", "result": "15.2 µM (active)"},
      {"measurement": "IC50", "setting": "[4]", "result": "73.1 µM (active)"}
    ]},
    {"smiles": "O=C(c1ccco1)N1CCN(c2cc(-c3ccccc3)nc3cc(-c4cccc(Cl)c4)nn23)CC1", "values": [
      {"measurement": "EC50", "setting": "[5]", "result": "720 nM (active) and 2 µM (active)"},
      {"measurement": "EC50", "setting": "[6]", "result": "2.67 µM (active) and 3.69 µM (active)"}
    ]},
    {"smiles": "COc1ccc(-c2ccc(/C=N/NC(=O)c3cccnc3)o2)c([N+](=O)[O-])c1", "values": [
      {"measurement": "IC50", "setting": "[7]", "result": "12 µM (active)"},
      {"measurement": "IC50", "setting": "[8]", "result": "38.5 µM (inactive)"},
      {"measurement": "IC50", "setting": "[2]", "result": "3.42 µM (active)"},
      {"measurement": "IC50", "setting": "[9]", "result": "> 80 µM (inactive)"}
    ]}
  ]
}
